According to patent US20060069132A1, “Azolecarboxamide herbicides” (priority 2004, published 2006):

Tests used:
barnyardgrass [1] = test: Test B pre-/postemergence herbicide test; assay type: in vivo, Echinochloa crus-galli; conditions: for Plant response rating (0 to 100 scale), Barnyardgrass: 0 is no effect, preemergence
How it was run: (§1)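 Visual rating, 0 (no effect) to 100 (complete control), versus untreated controls after 13–15 d in greenhouse. Pre- and postemergence applications (postemergence plants 2–18 cm, 1–4 leaves); flooded paddy arm at 2-leaf stage. Compounds in non-phytotoxic solvent plus surfactant.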

Surinam grass = test: Test B pre-/postemergence herbicide test; assay type: in vivo, Urochloa decumbens; conditions: for Plant response rating (0 to 100 scale), Surinam Grass: 0 is no effect, 100 is complete control, preemergence
How it was run: (§2)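 Pre: seeds sown, then sprayed. Post: 1–4-leaf plants (2–18 cm) sprayed at the same time. Paddy: flooded, treated at 2-leaf stage. Formulation: non-phytotoxic solvent with surfactant. Greenhouse 13–15 days; visual 0–100 score relative to controls.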

cocklebur = test: Test B pre-/postemergence herbicide test; assay type: in vivo, Xanthium strumarium; conditions: for Plant response rating (0 to 100 scale), Cocklebur: 0 is no effect, preemergence
How it was run: as §1

corn = test: Test B pre-/postemergence herbicide test; assay type: in vivo, Zea mays; conditions: for Plant response rating (0 to 100 scale), Corn: 0 is no effect, preemergence
How it was run: as §2

large crabgrass = test: Test B pre-/postemergence herbicide test; assay type: in vivo, Digitaria sanguinalis; conditions: for Plant response rating (0 to 100 scale), Crabgrass, Large: 0 is no effect, preemergence
How it was run: as §2

giant foxtail = test: Test B pre-/postemergence herbicide test; assay type: in vivo, Setaria faberi; conditions: for Plant response rating (0 to 100 scale), Foxtail, Giant: 0 is no effect, preemergence
How it was run: as §2

lambsquarters = test: Test B pre-/postemergence herbicide test; assay type: in vivo, Chenopodium album; conditions: for Plant response rating (0 to 100 scale), Lambsquarters: 0 is no effect, 100 is complete control, preemergence
How it was run: as §2

morningglory = test: Test B pre-/postemergence herbicide test; assay type: in vivo, Ipomoea coccinea; conditions: for Plant response rating (0 to 100 scale), Morningglory: 0 is no effect, 100 is complete control, preemergence
How it was run: as §1

pigweed = test: Test B pre-/postemergence herbicide test; assay type: in vivo, Amaranthus retroflexus; conditions: for Plant response rating (0 to 100 scale), Pigweed: 0 is no effect, 100 is complete control, preemergence
How it was run: as §2

velvetleaf = test: Test B pre-/postemergence herbicide test; assay type: in vivo, Abutilon theophrasti; conditions: for Plant response rating (0 to 100 scale), Velvetleaf: 0 is no effect, 100 is complete control, preemergence
How it was run: as §2

blackgrass = test: Test B postemergence herbicide test; assay type: in vivo, Alopecurus myosuroides
How it was run: (§3)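 Visual ratings, 0 (no effect) to 100 (complete control), made versus controls after 13–15 d greenhouse. Paddy plants treated at 2-leaf stage; postemergence plants at 1- to 4-leaf stage, 2–18 cm tall.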

wheat = test: Test B postemergence herbicide test; assay type: in vivo, Triticum aestivum; set-up: key to Wheat plant response rating: 0 = no effect, 100 = complete control
How it was run: as §3

wild oat = test: Test B postemergence herbicide test; assay type: in vivo, Avena fatua
How it was run: as §3

rice = test: Test B flooded paddy test; assay type: in vivo, Oryza sativa; conditions: scale 0 to 100 (0 no effect, 100 complete control)
How it was run: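 Plants grow to 1- to 4-leaf stage (2–18 cm) for postemergence spraying, or to 2-leaf stage for the paddy test. Formulated compound is applied. Greenhouse holding lasts 13–15 days. Response is scored visually relative to controls, 0 no effect to 100 complete control; a dash means no result.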

[2] = test system: small flower umbrella sedge; test: Test B flooded paddy test; assay type: in vivo, Cyperus difformis; conditions: scale 0 to 100 (0 no effect, 100 complete control)
How it was run: as §3

ducksalad = test: Test B flooded paddy test; assay type: in vivo, Heteranthera limosa; conditions: scale 0 to 100 (0 no effect, 100 complete control)
How it was run: as §3

barnyardgrass [3] = test: Test B flooded paddy test; assay type: in vivo, Echinochloa crus-galli; conditions: scale 0 to 100 (0 no effect, 100 complete control)
How it was run: as §3

[4] = postemergence, 16 g ai/ha, scale 0 to 100
[5] = postemergence, 62 g ai/ha, scale 0 to 100
[6] = Postemergence, 125 g ai/ha, scale 0 (no effect) to 100 (complete control)
[7] = Postemergence, 500 g ai/ha, scale 0 (no effect) to 100 (complete control)
[8] = postemergence, 125 g ai/ha, scale 0 to 100
[9] = 500 g ai/ha, scale 0 to 100, 0 no effect, 100 complete control, preemergence
[10] = 125 g ai/ha, 100 is complete control
[11] = 125 g ai/ha, visual rating, scale 0 (no effect) to 100 (complete control), postemergence
[12] = postemergence, 500 g ai/ha, scale 0 to 100, 0 is no effect, 100 is complete control

CCn1nc(C(C)(C)C)cc1C(=O)Nc1cc(C(=O)NC)c(F)cc1F [Compound 251]
20: Wheat plant response rating (wheat; [4]) | Wheat plant response rating (wheat; [5]) | Oat, Wild plant response rating (wild oat; [4]) | Oat, Wild plant response rating (wild oat; [5])
50: Blackgrass plant response rating (blackgrass; [5])
40: Rice plant response rating (rice; 1000 g ai/ha) | Sedge, Umbrella plant response rating ([2]; 1000 g ai/ha)
30: Ducksalad plant response rating (ducksalad; 1000 g ai/ha)
0: Barnyardgrass plant response rating (barnyardgrass [1]; [4]) | Barnyardgrass plant response rating (barnyardgrass [1]; [5]) | Surinam Grass plant response rating (Surinam grass; [4]) | Surinam Grass plant response rating (Surinam grass; [5]) | Cocklebur plant response rating (cocklebur; [4]) | Cocklebur plant response rating (cocklebur; [5]) | Corn plant response rating (corn; [4]) | Corn plant response rating (corn; [5]) | Crabgrass, Large plant response rating (large crabgrass; [4]) | Crabgrass, Large plant response rating (large crabgrass; [5]) | Foxtail, Giant plant response rating (giant foxtail; [4]) | Foxtail, Giant plant response rating (giant foxtail; [5]) | Lambsquarters plant response rating (lambsquarters; [4]) | Morningglory plant response rating (morningglory; [4]) | Morningglory plant response rating (morningglory; [5]) | Pigweed plant response rating (pigweed; [4]) | Velvetleaf plant response rating (velvetleaf; [4]) | Barnyardgrass plant response rating (barnyardgrass [3]; 1000 g ai/ha)
10: Lambsquarters plant response rating (lambsquarters; [5]) | Pigweed plant response rating (pigweed; [5]) | Velvetleaf plant response rating (velvetleaf; [5]) | Blackgrass plant response rating (blackgrass; [4])

CCNC(=O)c1cccc(NC(=O)c2nn(C(C)(C)C)nc2C)n1 [Compound 437]
30: Barnyardgrass plant response rating (barnyardgrass [1]; [7]) | Cocklebur plant response rating (cocklebur; [7]) | Corn plant response rating (corn; [7]) | Foxtail, Giant plant response rating (giant foxtail; [7]) | Morningglory plant response rating (morningglory; [7]) | Pigweed plant response rating (pigweed; [7]) | Blackgrass plant response rating (blackgrass; [7]) | Oat, Wild plant response rating (wild oat; [7])
0: Barnyardgrass plant response rating (barnyardgrass [1]; [6]) | Surinam Grass plant response rating (Surinam grass; [8]) | Corn plant response rating (corn; [8]) | Crabgrass, Large plant response rating (large crabgrass; [8]) | Foxtail, Giant plant response rating (giant foxtail; [8]) | Morningglory plant response rating (morningglory; [8]) | Velvetleaf plant response rating (velvetleaf; [8]) | Blackgrass plant response rating (blackgrass; [8]) | Wheat plant response rating (wheat; [9]) | Rice plant response rating (rice; 125 g ai/ha) | Sedge, Umbrella plant response rating ([2]; 125 g ai/ha) | Ducksalad plant response rating (ducksalad; 125 g ai/ha) | Barnyardgrass plant response rating (barnyardgrass [3]; 125 g ai/ha)
10: Cocklebur plant response rating (cocklebur; [8])
40: Lambsquarters plant response rating (lambsquarters; [7])
20: Surinam Grass plant response rating (Surinam grass; [7]) | Crabgrass, Large plant response rating (large crabgrass; [7]) | Lambsquarters plant response rating (lambsquarters; [8]) | Pigweed plant response rating (pigweed; [8]) | Velvetleaf plant response rating (velvetleaf; [7]) | Wheat plant response rating (wheat; [7])

Cc1nn(C(C)C)nc1C(=O)Nc1cc(C(=O)N2CC=CC2)ccc1F [Compound 402]
20: Surinam Grass plant response rating (Surinam grass; [7]) | Foxtail, Giant plant response rating (giant foxtail; [7]) | Velvetleaf plant response rating (velvetleaf; [11]) | Ducksalad plant response rating (ducksalad; 1000 g ai/ha)
0: Plant response rating (0 to 100 scale), Barnyardgrass (barnyardgrass [1]; [10]) | Barnyardgrass plant response rating (barnyardgrass [1]; [11]) | Barnyardgrass plant response rating (barnyardgrass [1]; [7]) | Plant response rating (0 to 100 scale), Surinam Grass (Surinam grass; 125 g ai/ha) | Surinam Grass plant response rating (Surinam grass; [11]) | Plant response rating (0 to 100 scale), Cocklebur (cocklebur; [10]) | Cocklebur plant response rating (cocklebur; [11]) | Cocklebur plant response rating (cocklebur; [7]) | Plant response rating (0 to 100 scale), Corn (corn; [10]) | Corn plant response rating (corn; [11]) | Corn plant response rating (corn; [7]) | Plant response rating (0 to 100 scale), Crabgrass, Large (large crabgrass; [10]) | Crabgrass, Large plant response rating (large crabgrass; [11]) | Plant response rating (0 to 100 scale), Foxtail, Giant (giant foxtail; [10]) | Foxtail, Giant plant response rating (giant foxtail; [11]) | Plant response rating (0 to 100 scale), Lambsquarters (lambsquarters; 125 g ai/ha) | Plant response rating (0 to 100 scale), Morningglory (morningglory; 125 g ai/ha) | Morningglory plant response rating (morningglory; [11]) | Morningglory plant response rating (morningglory; [7]) | Plant response rating (0 to 100 scale), Pigweed (pigweed; 125 g ai/ha) | Pigweed plant response rating (pigweed; [11]) | Plant response rating (0 to 100 scale), Velvetleaf (velvetleaf; 125 g ai/ha) | Blackgrass plant response rating (blackgrass; [11]) | Blackgrass plant response rating (blackgrass; [7]) | Wheat plant response rating (wheat; [11]) | Wheat plant response rating (wheat; [7]) | Oat, Wild plant response rating (wild oat; [11]) | Oat, Wild plant response rating (wild oat; [7])
10: Crabgrass, Large plant response rating (large crabgrass; [7]) | Pigweed plant response rating (pigweed; [7]) | Wheat plant response rating (wheat; [9]) | Rice plant response rating (rice; 1000 g ai/ha) | Barnyardgrass plant response rating (barnyardgrass [3]; 1000 g ai/ha)
70: Sedge, Umbrella plant response rating ([2]; 1000 g ai/ha)
30: Lambsquarters plant response rating (lambsquarters; [11]) | Velvetleaf plant response rating (velvetleaf; [7])
40: Lambsquarters plant response rating (lambsquarters; [7])

CCc1nn(C(C)(C)C)nc1C(=O)Nc1cccc(C(=O)N(C)C)c1 [Compound 364]
90: Rice plant response rating (rice; 1000 g ai/ha) | Barnyardgrass plant response rating (barnyardgrass [3]; 1000 g ai/ha)
100: Plant response rating (0 to 100 scale), Barnyardgrass (barnyardgrass [1]; [10]) | Plant response rating (0 to 100 scale), Surinam Grass (Surinam grass; 125 g ai/ha) | Plant response rating (0 to 100 scale), Crabgrass, Large (large crabgrass; [10]) | Plant response rating (0 to 100 scale), Foxtail, Giant (giant foxtail; [10]) | Plant response rating (0 to 100 scale), Lambsquarters (lambsquarters; 125 g ai/ha) | Plant response rating (0 to 100 scale), Pigweed (pigweed; 125 g ai/ha) | Plant response rating (0 to 100 scale), Velvetleaf (velvetleaf; 125 g ai/ha) | Wheat plant response rating (wheat; [9]) | Sedge, Umbrella plant response rating ([2]; 1000 g ai/ha) | Ducksalad plant response rating (ducksalad; 1000 g ai/ha)
70: Barnyardgrass plant response rating (barnyardgrass [1]; [12]) | Plant response rating (0 to 100 scale), Cocklebur (cocklebur; [10]) | Crabgrass, Large plant response rating (large crabgrass; [12]) | Lambsquarters plant response rating (lambsquarters; [11]) | Plant response rating (0 to 100 scale), Morningglory (morningglory; 125 g ai/ha)
80: Plant response rating (0 to 100 scale), Corn (corn; [10]) | Blackgrass plant response rating (blackgrass; [12])
20: Morningglory plant response rating (morningglory; [11]) | Velvetleaf plant response rating (velvetleaf; [11]) | Oat, Wild plant response rating (wild oat; [11])
10: Barnyardgrass plant response rating (barnyardgrass [1]; [11]) | Corn plant response rating (corn; [11]) | Foxtail, Giant plant response rating (giant foxtail; [11]) | Wheat plant response rating (wheat; [11])
30: Surinam Grass plant response rating (Surinam grass; [11]) | Crabgrass, Large plant response rating (large crabgrass; [11]) | Blackgrass plant response rating (blackgrass; [11])
40: Cocklebur plant response rating (cocklebur; [11]) | Corn plant response rating (corn; [12]) | Pigweed plant response rating (pigweed; [11])
50: Cocklebur plant response rating (cocklebur; [12]) | Foxtail, Giant plant response rating (giant foxtail; [12])

C=CCNC(=O)c1cccc(NC(=O)c2nn(C(C)(C)C)nc2C)n1 [Compound 438]
50: Morningglory plant response rating (morningglory; [7])
20: Cocklebur plant response rating (cocklebur; [7]) | Cocklebur plant response rating (cocklebur; [8]) | Foxtail, Giant plant response rating (giant foxtail; [7]) | Blackgrass plant response rating (blackgrass; [8]) | Wheat plant response rating (wheat; [8])
30: Corn plant response rating (corn; [8]) | Pigweed plant response rating (pigweed; [7]) | Velvetleaf plant response rating (velvetleaf; [7]) | Blackgrass plant response rating (blackgrass; [7]) | Wheat plant response rating (wheat; [7]) | Oat, Wild plant response rating (wild oat; [8])
0: Barnyardgrass plant response rating (barnyardgrass [1]; [6]) | Barnyardgrass plant response rating (barnyardgrass [1]; [7]) | Surinam Grass plant response rating (Surinam grass; [7]) | Surinam Grass plant response rating (Surinam grass; [8]) | Crabgrass, Large plant response rating (large crabgrass; [7]) | Crabgrass, Large plant response rating (large crabgrass; [8]) | Foxtail, Giant plant response rating (giant foxtail; [8]) | Velvetleaf plant response rating (velvetleaf; [8]) | Wheat plant response rating (wheat; [9]) | Rice plant response rating (rice; 125 g ai/ha) | Sedge, Umbrella plant response rating ([2]; 125 g ai/ha) | Ducksalad plant response rating (ducksalad; 125 g ai/ha) | Barnyardgrass plant response rating (barnyardgrass [3]; 125 g ai/ha)
40: Corn plant response rating (corn; [7]) | Morningglory plant response rating (morningglory; [8]) | Oat, Wild plant response rating (wild oat; [7])
10: Lambsquarters plant response rating (lambsquarters; [7]) | Lambsquarters plant response rating (lambsquarters; [8]) | Pigweed plant response rating (pigweed; [8])
